Experimental data reported in ChEMBL document CHEMBL1201862, “PubChem BioAssay data set” (2004).
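Results reflect a 48-hour exposure of cells in 96-well plates to compound at five concentrations. The concentration for 50% growth inhibition is given as GI50.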 Activity calls are given as the source filed them. No stated cut-off is given here; in the data, active = GI50 up to about 1.1 µM and inactive = higher.

Columns and labels:
Experiment in all cases: NCI anticancer screen, dose series, 48 h
MOLT-4 = test system: MOLT-4
NCI-H23 = test system: NCI-H23
SF-268 = test system: SF-268
MDA-N = test system: MDA-N
SK-MEL-28 = test system: SK-MEL-28
HCT-116 = test system: HCT-116
SNB-75 = test system: SNB-75
RXF 393 = test system: RXF 393
HT-29 = test system: HT-29
SK-MEL-5 = test system: SK-MEL-5
786-0 = test system: 786-0
CCRF-CEM = test system: CCRF-CEM
Hs-578T = test system: Hs-578T
PC-3 = test system: PC-3
SN12C = test system: SN12C
OVCAR-3 = test system: OVCAR-3
OVCAR-4 = test system: OVCAR-4
A498 = test system: A498
CAKI-1 = test system: CAKI-1
HOP-92 = test system: HOP-92
K562 = test system: K562
UACC-257 = test system: UACC-257
KM12 = test system: KM12
IGROV-1 = test system: IGROV-1
A549 = test system: A549
MCF7 = test system: MCF7
ACHN = test system: ACHN
TK-10 = test system: TK-10
UO-31 = test system: UO-31
OVCAR-8 = test system: OVCAR-8
SR = test system: SR
Malme-3M = test system: Malme-3M
M14 = test system: M14
SF-539 = test system: SF-539
SF-295 = test system: SF-295
EKVX = test system: EKVX
NCI/ADR-RES = test system: NCI/ADR-RES
RPMI-8226 = test system: RPMI-8226
COLO 205 = test system: COLO 205
MDA-MB-231 = test system: MDA-MB-231
T47D = test system: T47D
BT-549 = test system: BT-549
NCI-H522 = test system: NCI-H522
HOP-62 = test system: HOP-62
SNB-19 = test system: SNB-19
SW-620 = test system: SW-620
DU-145 = test system: DU-145
UACC-62 = test system: UACC-62
HCC 2998 = test system: HCC 2998
LOX IMVI = test system: LOX IMVI
OVCAR-5 = test system: OVCAR-5
HCT-15 = test system: HCT-15
SK-OV-3 = test system: SK-OV-3
MDA-MB-435 = test system: MDA-MB-435
NCI-H460 = test system: NCI-H460
SK-MEL-2 = test system: SK-MEL-2
U-251 = test system: U-251
HL-60 = test system: HL-60
NCI-H226 = test system: NCI-H226

`Oc1ccc2ccccc2c1/C=N/Cc1c(O)ccc2ccccc12` was tested, and the GI50 (MOLT-4) was 13.2 µM (inactive), the GI50 (NCI-H23) was 42.7 µM (inactive) and the GI50 (SF-268) was 37.2 µM (inactive). For the same molecule, the GI50 (MDA-N) was 51.1 µM (inactive), the GI50 (SK-MEL-28) was > 100 µM (inactive) and the GI50 (HCT-116) was 28.3 µM (inactive). For the same molecule, the GI50 (SNB-75) was 37.9 µM (inactive), the GI50 (RXF 393) was 1.39 µM (inactive) and the GI50 (HT-29) was > 100 µM (inactive). The GI50 (SK-MEL-5) was 71.9 µM (inactive), the GI50 (786-0) was 47.2 µM (inactive) and the GI50 (CCRF-CEM) was 6.25 µM (inactive). The GI50 (Hs-578T) was 69 µM (inactive), the GI50 (PC-3) was 38.7 µM (inactive) and the GI50 (SN12C) was 32.8 µM (inactive). For the same molecule, the GI50 (OVCAR-3) was 18.4 µM (inactive), the GI50 (OVCAR-4) was > 100 µM (inactive) and the GI50 (A498) was 26.1 µM (inactive). For the same molecule, the GI50 (CAKI-1) was 87.7 µM (inactive), the GI50 (HOP-92) was 26.4 µM (inactive) and the GI50 (K562) was 18.5 µM (inactive). The GI50 (UACC-257) was 81.5 µM (inactive), the GI50 (KM12) was 55.2 µM (inactive) and the GI50 (IGROV-1) was 35.6 µM (inactive). For the same molecule, the GI50 (A549) was 86.7 µM (inactive), the GI50 (MCF7) was 48.2 µM (inactive) and the GI50 (ACHN) was 28.4 µM (inactive). For the same molecule, the GI50 (TK-10) was 70.5 µM (inactive), the GI50 (UO-31) was 28.7 µM (inactive) and the GI50 (OVCAR-8) was 34.5 µM (inactive). For the same molecule, the GI50 (SR) was 27.2 µM (inactive), the GI50 (Malme-3M) was 43.2 µM (inactive) and the GI50 (M14) was 44.5 µM (inactive). The GI50 (SF-539) was 31.6 µM (inactive), the GI50 (SF-295) was 39.5 µM (inactive) and the GI50 (EKVX) was 7.71 µM (inactive). The GI50 (NCI/ADR-RES) was 33.8 µM (inactive), the GI50 (RPMI-8226) was 12.6 µM (inactive) and the GI50 (COLO 205) was > 100 µM (inactive). The GI50 (MDA-MB-231) was 82.4 µM (inactive), the GI50 (T47D) was 19.1 µM (inactive) and the GI50 (BT-549) was 45.3 µM (inactive). For the same molecule, the GI50 (NCI-H522) was 6.53 µM (inactive), the GI50 (HOP-62) was > 100 µM (inactive) and the GI50 (SNB-19) was 36.9 µM (inactive). The GI50 (SW-620) was 52.4 µM (inactive), the GI50 (DU-145) was 41.4 µM (inactive) and the GI50 (UACC-62) was 45.1 µM (inactive). The GI50 (HCC 2998) was 42.2 µM (inactive), the GI50 (LOX IMVI) was 48.1 µM (inactive) and the GI50 (OVCAR-5) was > 100 µM (inactive). The GI50 (HCT-15) was 29.4 µM, the GI50 (SK-OV-3) was > 100 µM (inactive) and the GI50 (MDA-MB-435) was 77.6 µM (inactive). The GI50 (NCI-H460) was 28.1 µM (inactive), the GI50 (SK-MEL-2) was 71.8 µM (inactive) and the GI50 (U-251) was 29 µM (inactive).
`CCCCc1c(O)nc(Nc2nc3ccccc3[nH]2)[nH]c1=O` was tested, and the GI50 (MOLT-4) was > 100 µM (inactive), the GI50 (HL-60) was > 100 µM (inactive) and the GI50 (NCI-H23) was > 100 µM (inactive). For the same molecule, the GI50 (SF-268) was 98.9 µM (inactive), the GI50 (MDA-N) was > 100 µM (inactive) and the GI50 (SK-MEL-28) was > 100 µM (inactive). The GI50 (HCT-116) was > 100 µM (inactive), the GI50 (SNB-75) was > 100 µM (inactive) and the GI50 (RXF 393) was > 100 µM (inactive). For the same molecule, the GI50 (HT-29) was > 100 µM (inactive), the GI50 (SK-MEL-5) was > 100 µM (inactive) and the GI50 (786-0) was > 100 µM (inactive). For the same molecule, the GI50 (CCRF-CEM) was > 100 µM (inactive), the GI50 (Hs-578T) was 23.3 µM (inactive) and the GI50 (PC-3) was > 100 µM (inactive). The GI50 (SN12C) was > 100 µM (inactive), the GI50 (OVCAR-3) was > 100 µM (inactive) and the GI50 (OVCAR-4) was > 100 µM (inactive). The GI50 (A498) was > 100 µM (inactive), the GI50 (CAKI-1) was > 100 µM (inactive) and the GI50 (K562) was > 100 µM (inactive). For the same molecule, the GI50 (UACC-257) was > 100 µM (inactive), the GI50 (KM12) was > 100 µM (inactive) and the GI50 (IGROV-1) was > 100 µM (inactive). The GI50 (A549) was > 100 µM (inactive), the GI50 (MCF7) was > 100 µM (inactive) and the GI50 (ACHN) was > 100 µM (inactive). The GI50 (TK-10) was > 100 µM (inactive), the GI50 (OVCAR-8) was > 100 µM (inactive) and the GI50 (SR) was > 100 µM (inactive). For the same molecule, the GI50 (Malme-3M) was 22.1 µM (inactive), the GI50 (M14) was > 100 µM (inactive) and the GI50 (SF-539) was > 100 µM (inactive). The GI50 (SF-295) was > 100 µM (inactive), the GI50 (EKVX) was > 100 µM (inactive) and the GI50 (NCI/ADR-RES) was > 100 µM (inactive). For the same molecule, the GI50 (RPMI-8226) was > 100 µM (inactive), the GI50 (COLO 205) was > 100 µM (inactive) and the GI50 (MDA-MB-231) was > 100 µM (inactive). The GI50 (T47D) was > 100 µM (inactive), the GI50 (BT-549) was > 100 µM (inactive) and the GI50 (NCI-H522) was 57 µM (inactive). The GI50 (HOP-62) was > 100 µM (inactive), the GI50 (NCI-H226) was 67 µM (inactive) and the GI50 (SNB-19) was > 100 µM (inactive). For the same molecule, the GI50 (SW-620) was > 100 µM (inactive), the GI50 (DU-145) was > 100 µM (inactive) and the GI50 (UACC-62) was > 100 µM (inactive). For the same molecule, the GI50 (LOX IMVI) was > 100 µM (inactive), the GI50 (OVCAR-5) was > 100 µM (inactive) and the GI50 (HCT-15) was over 100 µM. For the same molecule, the GI50 (SK-OV-3) was > 100 µM (inactive), the GI50 (MDA-MB-435) was > 100 µM (inactive) and the GI50 (NCI-H460) was > 100 µM (inactive). The GI50 (SK-MEL-2) was > 100 µM (inactive) and the GI50 (U-251) was 69.7 µM (inactive).
With `COC(=O)/C=C\[C@@H]1[C@H](C)N1S(=O)(=O)c1ccc(C)cc1` (some centres not stated) the GI50 (MOLT-4) was > 100 µM (inactive), the GI50 (HL-60) was > 100 µM (inactive) and the GI50 (NCI-H23) was > 100 µM (inactive). The GI50 (SF-268) was > 100 µM (inactive), the GI50 (MDA-N) was > 100 µM (inactive) and the GI50 (SK-MEL-28) was > 100 µM (inactive). The GI50 (HCT-116) was > 100 µM (inactive), the GI50 (RXF 393) was > 100 µM (inactive) and the GI50 (HT-29) was > 100 µM (inactive). The GI50 (SK-MEL-5) was > 100 µM (inactive), the GI50 (786-0) was > 100 µM (inactive) and the GI50 (CCRF-CEM) was > 100 µM (inactive). For the same molecule, the GI50 (Hs-578T) was > 100 µM (inactive), the GI50 (PC-3) was > 100 µM (inactive) and the GI50 (SN12C) was > 100 µM (inactive). The GI50 (OVCAR-3) was > 100 µM (inactive), the GI50 (OVCAR-4) was > 100 µM (inactive) and the GI50 (A498) was > 100 µM (inactive). For the same molecule, the GI50 (CAKI-1) was > 100 µM (inactive), the GI50 (K562) was > 100 µM (inactive) and the GI50 (UACC-257) was > 100 µM (inactive). The GI50 (IGROV-1) was > 100 µM (inactive), the GI50 (A549) was > 100 µM (inactive) and the GI50 (MCF7) was > 100 µM (inactive). The GI50 (ACHN) was > 100 µM (inactive), the GI50 (TK-10) was > 100 µM (inactive) and the GI50 (OVCAR-8) was > 100 µM (inactive). The GI50 (SR) was > 100 µM (inactive), the GI50 (Malme-3M) was > 100 µM (inactive) and the GI50 (M14) was > 100 µM (inactive). The GI50 (SF-539) was > 100 µM (inactive), the GI50 (SF-295) was > 100 µM (inactive) and the GI50 (NCI/ADR-RES) was > 100 µM (inactive). The GI50 (RPMI-8226) was > 100 µM (inactive), the GI50 (COLO 205) was > 100 µM (inactive) and the GI50 (MDA-MB-231) was > 100 µM (inactive). For the same molecule, the GI50 (T47D) was > 100 µM (inactive), the GI50 (BT-549) was > 100 µM (inactive) and the GI50 (NCI-H522) was > 100 µM (inactive). For the same molecule, the GI50 (HOP-62) was > 100 µM (inactive), the GI50 (NCI-H226) was > 100 µM (inactive) and the GI50 (SNB-19) was > 100 µM (inactive). The GI50 (SW-620) was > 100 µM (inactive), the GI50 (DU-145) was > 100 µM (inactive) and the GI50 (UACC-62) was > 100 µM (inactive). For the same molecule, the GI50 (HCC 2998) was > 100 µM (inactive), the GI50 (LOX IMVI) was > 100 µM (inactive) and the GI50 (OVCAR-5) was > 100 µM (inactive). The GI50 (HCT-15) was over 100 µM, the GI50 (SK-OV-3) was > 100 µM (inactive) and the GI50 (MDA-MB-435) was > 100 µM (inactive). For the same molecule, the GI50 (NCI-H460) was > 100 µM (inactive), the GI50 (SK-MEL-2) was > 100 µM (inactive) and the GI50 (U-251) was > 100 µM (inactive).
